Here are results for five compounds from patent US12252524B2, “GIP/GLP1 co-agonist compounds” (Eli Lilly and Company, priority 2018, dated 2025).

Test [1] addresses human GLP-1 receptor (GLP-1R) (Homo sapiens, UniProt P43220). The test is described as follows: cAMP pharmacological functional assay in presence of casein, hGLP-1R. In kind it is cell-based. The settings on record: HEK293 cells expressing hGLP-1R, 0.1% Casein, geometric mean; read-out: hGLP1R cAMP Rel EC50 nM (SEM, n).
Test [2] deals with T1, gastric inhibitory peptide receptor (GIPR) (Homo sapiens, UniProt P48546).
T1 sequence (P48546 22-466): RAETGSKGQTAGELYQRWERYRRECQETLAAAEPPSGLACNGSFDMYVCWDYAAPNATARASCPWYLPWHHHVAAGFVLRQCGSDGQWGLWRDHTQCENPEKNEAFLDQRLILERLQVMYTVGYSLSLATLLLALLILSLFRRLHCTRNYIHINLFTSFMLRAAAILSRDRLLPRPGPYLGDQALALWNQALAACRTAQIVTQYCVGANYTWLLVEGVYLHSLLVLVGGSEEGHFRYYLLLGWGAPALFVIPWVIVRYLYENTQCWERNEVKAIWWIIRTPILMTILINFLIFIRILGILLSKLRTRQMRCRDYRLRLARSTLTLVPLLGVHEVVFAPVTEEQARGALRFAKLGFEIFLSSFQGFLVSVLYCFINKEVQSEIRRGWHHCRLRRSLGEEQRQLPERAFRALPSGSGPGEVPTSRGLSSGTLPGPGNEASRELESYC
The experiment in a line: cAMP pharmacological functional assay in presence of casein, hGIPR. The class given is cell-based. The settings on record: HEK293 cells expressing hGIPR, 0.1% Casein, geometric mean; read-out: hGIPR cAMP Rel EC50 nM (SEM, n).

In test [3] the target is T2, human GLP-1R (Homo sapiens, UniProt P43220). The experiment in a line: GLP-1R CHO cell β-arrestin recruitment assay. The class given is cell-based. Set-up: host or cells: CHO-K1 PathHunter cells, assay-ready frozen. The settings on record: for EC50: CHO-K1 cells, PathHunter β-arrestin-2 recruitment, 0.1% casein, read-out: hGLP1R B-Arrestin2 Rel EC50 uM (SEM, n); for hGLP1R B-Arrestin2 % Top: normalized to GLP-1 maximum control. The method, boiled down: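 PathHunter CHO-K1 cells with ProLink-tagged human GLP-1R and enzyme-acceptor-tagged β-arrestin-2 treated with serially diluted peptides in assay buffer containing 0.1% hydrolyzed casein, 90 min at 37 °C.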
T2 sequence (P43220 24-463): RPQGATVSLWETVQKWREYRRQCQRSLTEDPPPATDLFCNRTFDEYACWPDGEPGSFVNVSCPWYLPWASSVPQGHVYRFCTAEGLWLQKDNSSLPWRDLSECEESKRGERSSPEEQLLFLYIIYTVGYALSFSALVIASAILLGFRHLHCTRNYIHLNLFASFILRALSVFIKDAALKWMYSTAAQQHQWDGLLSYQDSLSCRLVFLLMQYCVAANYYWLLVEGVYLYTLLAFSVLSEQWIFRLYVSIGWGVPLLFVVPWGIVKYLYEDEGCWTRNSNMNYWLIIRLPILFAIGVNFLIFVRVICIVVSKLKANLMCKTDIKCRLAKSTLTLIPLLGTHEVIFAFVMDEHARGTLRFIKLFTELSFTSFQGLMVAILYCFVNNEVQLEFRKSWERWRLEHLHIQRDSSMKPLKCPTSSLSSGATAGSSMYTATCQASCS

For test [4], the target named is T2, human GLP-1R. The test is described as follows: GLP-1R HEK293 cell membrane [35S]GTPγS binding assay. The settings on record: HEK293 cell membranes expressing human GLP-1R, [35S]GTPγS binding; read-out: hGLP1R GTPgS Rel EC50 nM (SEM, n). The class given is biochemical. Set-up: expressed in transfected cells; host or cells: HEK293 cells expressing human GLP-1R; membranes. Put shortly: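 Membranes from HEK293 cells expressing the receptor incubated with peptide and […] [35S]GTPγS in HEPES pH 7.4 buffer with NaCl, MgCl2, saponin and BSA, 30 min at room temperature. Gαs-bound label captured by anti-Gαs antibody/SPA beads and counted; EC50 from four-parameter logistic fit.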
(In general: GTPγS is a poorly hydrolysed GTP analogue; its binding reports G protein activation.)

Numbered stars: 1 amine (or outer) side, 2 acyl side, 3 side chain; on linkers, the order of the positions; unused ones are H or OH. Square brackets hold non-standard residues; d marks the D form. Side chains are listed from the residue outwards. Peptide text beside a SMILES is read from it. * marks the point of attachment. C20 diacid = O=C(O)CCCCCCCCCCCCCCCCCCC(=O)*; C18 diacid = O=C(O)CCCCCCCCCCCCCCCCC(=O)*; γGlu = O=C(O)[C@H](CCC(=O)[*:2])N[*:1]; αMeY = C[C@](N)(Cc1ccc(O)cc1)C(=O)O; αMeL = CC(C)C[C@](C)(N)C(=O)O; Orn = NCCC[C@H](N)C(=O)O; Dab = NCC[C@H](N)C(=O)O; AEEA = NCCOCCOCC(=O)O; Aib = CC(C)(N)C(=O)O

By EC50 is commonly meant the concentration at which the effect is half-maximal.

Sequence of human GLP-1 receptor (GLP-1R) (P43220 24-463): as above

As for `CC[C@H](C)[C@H](NC(=O)[C@H](CC(C)C)NC(=O)[C@](C)(Cc1ccc(O)cc1)NC(=O)[C@H](CCC(=O)O)NC(=O)[C@@H](NC(=O)[C@H](Cc1ccccc1)NC(=O)[C@H](C)NC(=O)C(C)(C)NC(=O)[C@H](CCC(N)=O)NC(=O)[C@H](C)NC(=O)[C@H](CCCCNC(=O)COCCOCCNC(=O)COCCOCCNC(=O)CC[C@H](NC(=O)CCCCCCCCCCCCCCCCCCC(=O)O)C(=O)O)NC(=O)[C@H](CCCN)NC(=O)[C@H](CC(=O)O)NC(=O)[C@H](CC(C)C)NC(=O)[C@](C)(CC(C)C)NC(=O)[C@@H](NC(=O)[C@H](CO)NC(=O)[C@H](Cc1ccc(O)cc1)NC(=O)[C@H](CC(=O)O)NC(=O)[C@H](CO)NC(=O)[C@@H](NC(=O)[C@H](Cc1ccccc1)NC(=O)[C@@H](NC(=O)CNC(=O)[C@H](CCC(=O)O)NC(=O)C(C)(C)NC(=O)[C@H](N)Cc1ccc(O)cc1)[C@@H](C)O)[C@@H](C)O)[C@@H](C)CC)[C@@H](C)CC)C(=O)N[C@@H](C)C(=O)NCC(=O)NCC(=O)N1CCC[C@H]1C(=O)N[C@@H](CO)C(=O)N[C@@H](CO)C(=O)NCC(=O)N[C@@H](C)C(=O)N1CCC[C@H]1C(=O)N1CCC[C@H]1C(=O)N1CCC[C@H]1C(=O)N[C@@H](CO)C(N)=O` [Example 366] (H-[dY][Aib]EGTFTSDYSI[αMeL]LD[Orn]K([AEEA-AEEA-γGlu-C20 diacid])AQ[Aib]AFIE[αMeY]LIAGGPSSGAPPPS-NH2), the concentration for a half-maximal effect (EC50) came out at 0.366 nM in test [1], 0.0889 nM in test [2], 0.00557 µM at human GLP-1R [3] and 0.409 nM on human GLP-1R [4]. Moreover, the “hGLP1R B-Arrestin2 % Top” value on human GLP-1R [3] is reported as 21.2%.

For `CC[C@H](C)[C@H](NC(=O)[C@H](CC(C)C)NC(=O)[C@](C)(Cc1ccc(O)cc1)NC(=O)[C@H](CCC(=O)O)NC(=O)[C@@H](NC(=O)[C@H](Cc1ccccc1)NC(=O)[C@H](C)NC(=O)C(C)(C)NC(=O)[C@H](CCC(N)=O)NC(=O)[C@H](C)NC(=O)[C@H](CCCCNC(=O)COCCOCCNC(=O)COCCOCCNC(=O)CC[C@H](NC(=O)CCCCCCCCCCCCCCCCC(=O)O)C(=O)O)NC(=O)[C@H](CCCCN)NC(=O)[C@H](CC(=O)O)NC(=O)[C@H](CC(C)C)NC(=O)[C@](C)(CC(C)C)NC(=O)[C@@H](NC(=O)[C@H](CO)NC(=O)[C@H](Cc1ccc(O)cc1)NC(=O)[C@H](CC(=O)O)NC(=O)[C@H](CO)NC(=O)[C@@H](NC(=O)[C@H](Cc1ccccc1)NC(=O)[C@@H](NC(=O)CNC(=O)[C@H](CCC(=O)O)NC(=O)C(C)(C)NC(=O)[C@H](N)Cc1ccc(O)cc1)[C@@H](C)O)[C@@H](C)O)[C@@H](C)CC)[C@@H](C)CC)C(=O)N[C@@H](C)C(=O)NCC(=O)NCC(=O)N1CCC[C@H]1C(=O)N[C@@H](CO)C(=O)N[C@@H](CO)C(=O)NCC(=O)N[C@@H](C)C(=O)N1CCC[C@H]1C(=O)N1CCC[C@H]1C(=O)N1CCC[C@H]1C(=O)N[C@@H](CO)C(N)=O` [Example 376] (H-[dY][Aib]EGTFTSDYSI[αMeL]LDKK([AEEA-AEEA-γGlu-C18 diacid])AQ[Aib]AFIE[αMeY]LIAGGPSSGAPPPS-NH2), the EC50 came to 0.17 nM in test [1], 0.0723 nM in test [2], 0.0123 µM on human GLP-1R [3] and 0.326 nM on human GLP-1R [4]. Besides, the “hGLP1R B-Arrestin2 % Top” value at human GLP-1R [3] came to 25.6%.

As to `CC[C@H](C)[C@H](NC(=O)[C@H](CC(C)C)NC(=O)[C@H](Cc1ccc(O)cc1)NC(=O)[C@@H](CCC(=O)O)NC(=O)[C@@H](NC(=O)[C@H](Cc1ccccc1)NC(=O)[C@H](CCC(=O)O)NC(=O)C(C)(C)NC(=O)[C@H](CCC(N)=O)NC(=O)[C@H](C)NC(=O)[C@H](CCCCNC(=O)COCCOCCNC(=O)COCCOCCNC(=O)CC[C@H](NC(=O)CCCCCCCCCCCCCCCCCCC(=O)O)C(=O)O)NC(=O)[C@H](CCCN)NC(=O)[C@H](CC(=O)O)NC(=O)[C@H](CC(C)C)NC(=O)[C@](C)(CC(C)C)NC(=O)[C@@H](NC(=O)[C@H](CO)NC(=O)[C@H](Cc1ccc(O)cc1)NC(=O)[C@H](CC(=O)O)NC(=O)[C@H](CO)NC(=O)[C@@H](NC(=O)[C@H](Cc1ccccc1)NC(=O)[C@@H](NC(=O)CNC(=O)[C@H](CCC(=O)O)NC(=O)C(C)(C)NC(=O)[C@H](N)Cc1ccc(O)cc1)[C@@H](C)O)[C@@H](C)O)[C@@H](C)CC)[C@@H](C)CC)C(=O)N[C@@H](CCC(=O)O)C(=O)NCC(=O)NCC(=O)N1CCC[C@H]1C(=O)N[C@@H](CO)C(=O)N[C@@H](CO)C(=O)NCC(=O)N[C@@H](C)C(=O)N1CCC[C@H]1C(=O)N1CCC[C@H]1C(=O)N1CCC[C@H]1C(=O)N[C@@H](CO)C(N)=O` [Example 355] (H-[dY][Aib]EGTFTSDYSI[αMeL]LD[Orn]K([AEEA-AEEA-γGlu-C20 diacid])AQ[Aib]EFI[dE]YLIEGGPSSGAPPPS-NH2), the EC50 turned out to be 0.896 nM in test [1], 0.685 nM in test [2], 0.363 µM on human GLP-1R [3] and 1.76 nM on human GLP-1R [4]. For the same compound, at human GLP-1R [3], the “hGLP1R B-Arrestin2 % Top” value came out at 18.3%.

Take `CC[C@H](C)[C@H](NC(=O)[C@H](CC(C)C)NC(=O)[C@H](Cc1ccc(O)cc1)NC(=O)[C@H](CCC(=O)O)NC(=O)[C@@H](NC(=O)[C@H](Cc1ccccc1)NC(=O)[C@H](CCC(=O)O)NC(=O)C(C)(C)NC(=O)[C@H](CCC(N)=O)NC(=O)[C@H](C)NC(=O)[C@H](CCCCNC(=O)COCCOCCNC(=O)COCCOCCNC(=O)CC[C@H](NC(=O)CCCCCCCCCCCCCCCCCCC(=O)O)C(=O)O)NC(=O)[C@H](CCN)NC(=O)[C@H](CC(=O)O)NC(=O)[C@H](CC(C)C)NC(=O)[C@](C)(CC(C)C)NC(=O)[C@@H](NC(=O)[C@H](CO)NC(=O)[C@H](Cc1ccc(O)cc1)NC(=O)[C@H](CC(=O)O)NC(=O)[C@H](CO)NC(=O)[C@@H](NC(=O)[C@H](Cc1ccccc1)NC(=O)[C@@H](NC(=O)CNC(=O)[C@H](CCC(=O)O)NC(=O)C(C)(C)NC(=O)[C@H](N)Cc1ccc(O)cc1)[C@@H](C)O)[C@@H](C)O)[C@@H](C)CC)[C@@H](C)CC)C(=O)N[C@@H](C)C(=O)NCC(=O)NCC(=O)N1CCC[C@H]1C(=O)N[C@@H](CO)C(=O)N[C@@H](CO)C(=O)NCC(=O)N[C@@H](C)C(=O)N1CCC[C@H]1C(=O)N1CCC[C@H]1C(=O)N1CCC[C@H]1C(=O)N[C@@H](CO)C(N)=O` [Example 350] (H-[dY][Aib]EGTFTSDYSI[αMeL]LD[Dab]K([AEEA-AEEA-γGlu-C20 diacid])AQ[Aib]EFIEYLIAGGPSSGAPPPS-NH2): the EC50 in test [1] was determined as 0.107 nM; in test [2] it was 0.189 nM; on human GLP-1R [3], 0.0108 µM; at human GLP-1R [4], 0.589 nM. Further, the “hGLP1R B-Arrestin2 % Top” value at human GLP-1R [3] was found to be 21.8%.

As to `CC[C@H](C)[C@H](NC(=O)[C@H](CC(C)C)NC(=O)[C@](C)(Cc1ccc(O)cc1)NC(=O)[C@H](CCC(=O)O)NC(=O)[C@@H](NC(=O)[C@H](Cc1ccccc1)NC(=O)[C@H](CCC(=O)O)NC(=O)C(C)(C)NC(=O)[C@H](CCC(N)=O)NC(=O)[C@H](C)NC(=O)[C@H](CCCCNC(=O)COCCOCCNC(=O)COCCOCCNC(=O)CC[C@H](NC(=O)CCCCCCCCCCCCCCCCCCC(=O)O)C(=O)O)NC(=O)[C@H](CCCN)NC(=O)[C@H](CC(=O)O)NC(=O)[C@H](CC(C)C)NC(=O)[C@](C)(CC(C)C)NC(=O)[C@@H](NC(=O)[C@H](CO)NC(=O)[C@H](Cc1ccc(O)cc1)NC(=O)[C@H](CC(=O)O)NC(=O)[C@H](CO)NC(=O)[C@@H](NC(=O)[C@H](Cc1ccccc1)NC(=O)[C@@H](NC(=O)CNC(=O)[C@H](CCC(=O)O)NC(=O)C(C)(C)NC(=O)[C@H](N)Cc1ccc(O)cc1)[C@@H](C)O)[C@@H](C)O)[C@@H](C)CC)[C@@H](C)CC)C(=O)N[C@@H](CCC(=O)O)C(=O)NCC(=O)NCC(=O)N1CCC[C@H]1C(=O)N[C@@H](CO)C(=O)N[C@@H](CO)C(=O)NCC(=O)N[C@@H](C)C(=O)N1CCC[C@H]1C(=O)N1CCC[C@H]1C(=O)N1CCC[C@H]1C(=O)N[C@@H](CO)C(N)=O` [Example 380] (H-[dY][Aib]EGTFTSDYSI[αMeL]LD[Orn]K([AEEA-AEEA-γGlu-C20 diacid])AQ[Aib]EFIE[αMeY]LIEGGPSSGAPPPS-NH2), the EC50 turned out to be 0.236 nM in test [1], 0.142 nM in test [2], 0.0137 µM on human GLP-1R [3] and 0.188 nM at human GLP-1R [4]. Moreover, the “hGLP1R B-Arrestin2 % Top” value at human GLP-1R [3] is 35%.
